ChEMBL document CHEMBL1201862, “PubChem BioAssay data set” (2004)
Calls of active or inactive are those of the source.

Experiments:
cells = format: functional
Large T antigen = Large T antigen (Simian virus 40, UniProt P03070); format: functional, Betapolyomavirus macacae;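 note: Confirmatory-stage PubChem screen for compounds that inhibit SV40 T antigen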
[1] = molecular target: T1, Carboxy-terminal domain RNA polymerase II polypeptide A small phosphatase 1 (Homo sapiens, UniProt Q9GZU7); test: CTDSP1 inhibitors, concentration-response, biochemical, absorbance readout, ultra-high-throughput screen actives (AID 540297); format: functional
T1 sequence (Q9GZU7 whole entry): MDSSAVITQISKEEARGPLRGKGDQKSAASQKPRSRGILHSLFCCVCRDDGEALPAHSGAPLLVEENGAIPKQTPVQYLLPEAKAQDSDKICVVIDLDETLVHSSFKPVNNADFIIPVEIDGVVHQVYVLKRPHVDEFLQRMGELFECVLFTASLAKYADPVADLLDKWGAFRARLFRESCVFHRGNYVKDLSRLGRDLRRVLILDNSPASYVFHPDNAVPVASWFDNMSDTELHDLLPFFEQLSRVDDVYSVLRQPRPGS

Genome polyprotein = Genome polyprotein (dengue virus type 2, UniProt P29990); test: flavivirus cap methylation enzyme inhibition – biochemical, confirmation dose response, primary screen (AID 588689); format: functional
Chain of Genome polyprotein (P29990 2492-3391 limits assumed): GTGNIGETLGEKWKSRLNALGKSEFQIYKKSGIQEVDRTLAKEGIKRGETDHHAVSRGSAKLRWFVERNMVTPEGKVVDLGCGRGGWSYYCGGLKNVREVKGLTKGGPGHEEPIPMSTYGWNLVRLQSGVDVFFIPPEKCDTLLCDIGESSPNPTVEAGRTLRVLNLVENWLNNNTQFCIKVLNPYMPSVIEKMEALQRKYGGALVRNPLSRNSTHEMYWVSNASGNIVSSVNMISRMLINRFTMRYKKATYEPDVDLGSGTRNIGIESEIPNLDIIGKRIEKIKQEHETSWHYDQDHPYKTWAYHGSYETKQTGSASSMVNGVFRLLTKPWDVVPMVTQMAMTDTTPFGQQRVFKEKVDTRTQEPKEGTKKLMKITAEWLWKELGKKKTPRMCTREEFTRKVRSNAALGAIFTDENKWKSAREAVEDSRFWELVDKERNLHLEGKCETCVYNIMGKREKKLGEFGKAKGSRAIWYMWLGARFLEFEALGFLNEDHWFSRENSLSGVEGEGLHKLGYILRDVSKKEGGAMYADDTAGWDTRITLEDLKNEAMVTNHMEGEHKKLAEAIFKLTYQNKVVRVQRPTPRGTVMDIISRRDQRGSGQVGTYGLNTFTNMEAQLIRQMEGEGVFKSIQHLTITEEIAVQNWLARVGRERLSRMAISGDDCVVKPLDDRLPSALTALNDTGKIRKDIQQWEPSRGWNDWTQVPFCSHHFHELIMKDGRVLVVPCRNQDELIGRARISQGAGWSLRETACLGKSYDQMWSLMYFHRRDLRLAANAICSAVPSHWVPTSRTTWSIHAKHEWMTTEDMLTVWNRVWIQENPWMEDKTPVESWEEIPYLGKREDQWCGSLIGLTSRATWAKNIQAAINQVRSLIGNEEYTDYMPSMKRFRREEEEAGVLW

Protein RecA = molecular target: T2, Protein RecA (Mycobacterium tuberculosis, UniProt P9WHJ3); test: Fluorescence Cell-Free Homogeneous Dose Retest to Identify Inhibitors of RecA-Intein Splicing Activity. [Related pubchem assays (depositor defined):AID2097, AID2223, AID489010, AID492950]; format: functional
T2 sequence (P9WHJ3 whole entry): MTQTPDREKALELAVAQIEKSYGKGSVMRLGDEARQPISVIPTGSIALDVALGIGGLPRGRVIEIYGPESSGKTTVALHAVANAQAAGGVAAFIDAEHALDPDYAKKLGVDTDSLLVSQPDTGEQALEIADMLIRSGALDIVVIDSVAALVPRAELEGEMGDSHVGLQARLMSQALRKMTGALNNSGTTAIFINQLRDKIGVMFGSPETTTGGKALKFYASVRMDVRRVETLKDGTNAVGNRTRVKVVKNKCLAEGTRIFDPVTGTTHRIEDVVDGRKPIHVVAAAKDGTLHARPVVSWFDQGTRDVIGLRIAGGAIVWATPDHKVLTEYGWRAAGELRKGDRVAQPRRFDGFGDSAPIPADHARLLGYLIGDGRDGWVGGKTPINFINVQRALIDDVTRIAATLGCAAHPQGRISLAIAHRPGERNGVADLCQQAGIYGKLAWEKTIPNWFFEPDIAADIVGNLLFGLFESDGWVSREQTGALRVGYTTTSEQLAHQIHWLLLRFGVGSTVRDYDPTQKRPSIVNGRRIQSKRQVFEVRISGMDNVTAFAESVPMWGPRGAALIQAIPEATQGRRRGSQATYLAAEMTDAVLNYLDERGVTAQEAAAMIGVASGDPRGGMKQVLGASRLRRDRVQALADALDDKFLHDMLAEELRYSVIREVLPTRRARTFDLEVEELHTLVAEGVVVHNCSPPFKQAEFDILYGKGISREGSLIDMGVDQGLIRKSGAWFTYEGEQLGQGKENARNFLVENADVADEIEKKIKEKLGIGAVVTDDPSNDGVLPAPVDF

[2] = molecular target: T3, Replicative DNA helicase DnaB (Mycobacterium tuberculosis, UniProt P9WMR3); test: DnaB intein splicing inhibitors, dose response, biochemical, cell-free fluorescence (AID 449749); format: functional
T3 sequence (P9WMR3 whole entry): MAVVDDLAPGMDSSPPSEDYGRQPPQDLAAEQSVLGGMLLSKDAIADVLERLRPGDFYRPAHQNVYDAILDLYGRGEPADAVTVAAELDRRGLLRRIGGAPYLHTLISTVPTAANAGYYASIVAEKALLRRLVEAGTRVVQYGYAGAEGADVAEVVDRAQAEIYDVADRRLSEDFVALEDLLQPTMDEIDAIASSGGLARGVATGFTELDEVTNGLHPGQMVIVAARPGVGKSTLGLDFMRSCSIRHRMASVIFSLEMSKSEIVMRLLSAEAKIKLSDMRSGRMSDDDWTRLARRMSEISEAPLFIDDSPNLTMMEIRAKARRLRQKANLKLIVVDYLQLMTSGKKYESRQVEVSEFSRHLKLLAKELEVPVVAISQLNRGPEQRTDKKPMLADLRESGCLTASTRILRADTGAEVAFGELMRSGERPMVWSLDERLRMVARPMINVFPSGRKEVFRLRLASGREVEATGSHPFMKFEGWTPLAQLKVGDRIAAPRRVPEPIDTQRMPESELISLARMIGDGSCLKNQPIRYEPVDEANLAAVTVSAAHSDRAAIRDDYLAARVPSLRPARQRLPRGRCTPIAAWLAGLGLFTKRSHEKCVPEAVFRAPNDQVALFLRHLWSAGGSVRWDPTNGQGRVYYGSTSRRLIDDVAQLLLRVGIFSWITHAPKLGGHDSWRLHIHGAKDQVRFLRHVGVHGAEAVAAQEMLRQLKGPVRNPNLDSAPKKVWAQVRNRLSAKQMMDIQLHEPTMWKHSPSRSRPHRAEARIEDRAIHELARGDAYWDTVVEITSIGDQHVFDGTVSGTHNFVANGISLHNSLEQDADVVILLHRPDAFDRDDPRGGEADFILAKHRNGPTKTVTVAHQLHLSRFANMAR

[3] = molecular target: T4, Polyadenylate-binding protein 1 (Homo sapiens, UniProt P11940); test: MLLE binding blockers, Cy5 peptide tracer – biochemical, fluorescence polarization, Cy5-PAM2 peptide, secondary, miRNA deadenylation inhibitor project, dose response (AID 602260); format: functional; settings: read-out: IC50_Mean
T4 sequence (P11940 whole entry): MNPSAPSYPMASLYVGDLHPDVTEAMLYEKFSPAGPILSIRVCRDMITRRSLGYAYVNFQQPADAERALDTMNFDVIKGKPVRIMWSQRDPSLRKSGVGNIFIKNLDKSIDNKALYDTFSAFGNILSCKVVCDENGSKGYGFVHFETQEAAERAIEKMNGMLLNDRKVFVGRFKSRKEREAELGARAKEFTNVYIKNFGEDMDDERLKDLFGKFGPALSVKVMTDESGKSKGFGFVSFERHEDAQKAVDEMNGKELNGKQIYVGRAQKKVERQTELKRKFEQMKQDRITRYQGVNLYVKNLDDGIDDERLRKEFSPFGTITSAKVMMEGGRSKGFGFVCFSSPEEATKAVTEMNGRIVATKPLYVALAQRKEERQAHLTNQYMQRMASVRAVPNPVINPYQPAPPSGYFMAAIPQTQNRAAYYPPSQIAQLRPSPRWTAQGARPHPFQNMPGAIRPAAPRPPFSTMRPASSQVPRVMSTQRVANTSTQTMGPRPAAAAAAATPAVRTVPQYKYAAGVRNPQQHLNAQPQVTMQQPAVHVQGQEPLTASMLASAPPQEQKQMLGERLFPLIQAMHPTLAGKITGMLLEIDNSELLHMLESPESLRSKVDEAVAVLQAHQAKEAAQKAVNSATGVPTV

Leucine aminopeptidase = molecular target: T5, Leucine aminopeptidase (Plasmodium falciparum 3D7, UniProt Q8IL11); test: P. falciparum M17LAP inhibitors, primary screen, biochemical, fluorogenic H-Leu-NHMec substrate, 1536-well (AID 1619); format: functional
T5 sequence (Q8IL11 whole entry): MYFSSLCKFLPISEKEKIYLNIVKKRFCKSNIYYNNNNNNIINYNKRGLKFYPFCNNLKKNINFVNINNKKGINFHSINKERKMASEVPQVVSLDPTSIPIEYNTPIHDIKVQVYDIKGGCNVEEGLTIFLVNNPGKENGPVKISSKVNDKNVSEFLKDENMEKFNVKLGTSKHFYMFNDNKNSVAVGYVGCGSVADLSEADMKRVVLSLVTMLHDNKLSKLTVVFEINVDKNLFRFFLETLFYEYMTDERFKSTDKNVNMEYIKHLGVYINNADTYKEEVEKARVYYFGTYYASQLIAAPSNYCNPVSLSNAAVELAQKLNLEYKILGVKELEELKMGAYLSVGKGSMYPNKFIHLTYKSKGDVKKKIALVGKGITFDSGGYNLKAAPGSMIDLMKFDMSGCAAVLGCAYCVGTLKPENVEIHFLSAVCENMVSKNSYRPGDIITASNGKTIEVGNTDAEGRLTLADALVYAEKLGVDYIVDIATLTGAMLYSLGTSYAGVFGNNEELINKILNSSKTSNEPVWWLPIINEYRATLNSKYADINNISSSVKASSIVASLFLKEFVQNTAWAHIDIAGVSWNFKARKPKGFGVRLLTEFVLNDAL

[4] = molecular target: T4, Polyadenylate-binding protein 1; test: MLLE domain peptide-binding blockers, IC50 – biochemical, fluorescence polarization, FITC-PAM2 peptide, dose response (AID 602259); format: functional; settings: read-out: IC50_Mean
[5] = DRD fibroblast viability loss – cell-based, non-viral oncogenic, luminescence, dose response (AID 1934); format: functional; settings: Homo sapiens
BJ [6] = test: BJ-TERT fibroblast viability loss – cell-based, RAS-independent, luminescence, dose response (AID 1933); format: functional; settings: Homo sapiens
BJ [7] = test: BJ-TERT-LT-ST fibroblast viability loss – cell-based, RAS-independent, luminescence, dose response (AID 1935); format: functional; settings: Homo sapiens;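 note: BJ fibroblasts immortalized with TERT plus LT and ST oncogenes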
BJ [8] = test: cells; format: functional, cell-based; settings: Homo sapiens
[9] = molecular target: T6, DNA repair protein RAD52 homolog (Homo sapiens, UniProt P43351); format: functional, biochemical
T6 sequence (P43351 whole entry): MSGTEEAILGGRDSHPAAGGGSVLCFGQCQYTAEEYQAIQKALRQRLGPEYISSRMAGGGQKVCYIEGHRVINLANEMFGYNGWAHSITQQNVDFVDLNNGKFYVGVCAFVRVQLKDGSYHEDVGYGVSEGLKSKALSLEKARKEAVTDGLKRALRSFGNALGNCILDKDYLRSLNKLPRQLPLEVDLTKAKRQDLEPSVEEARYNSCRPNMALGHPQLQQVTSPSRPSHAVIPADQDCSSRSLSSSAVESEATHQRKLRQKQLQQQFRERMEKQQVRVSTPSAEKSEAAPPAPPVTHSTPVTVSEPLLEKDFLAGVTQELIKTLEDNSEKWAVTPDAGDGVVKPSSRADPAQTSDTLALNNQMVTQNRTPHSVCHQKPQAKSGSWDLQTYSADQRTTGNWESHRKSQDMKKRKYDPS

[10] = molecular target: T7, Ubiquitin-conjugating enzyme E2 N (Homo sapiens, UniProt P61088); format: functional;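 note: Dose-response confirmation in a TR-FRET assay detecting UBC13-driven polyubiquitin chain formation, inhibition measured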
T7 sequence (P61088 whole entry): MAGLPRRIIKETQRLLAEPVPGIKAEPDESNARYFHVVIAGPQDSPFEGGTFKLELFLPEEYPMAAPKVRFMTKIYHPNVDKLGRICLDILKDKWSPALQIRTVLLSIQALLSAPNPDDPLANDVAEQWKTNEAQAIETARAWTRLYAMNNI

[11] = molecular target: Induced myeloid leukemia cell differentiation protein Mcl-1 (Homo sapiens, UniProt Q07820); format: functional
Chain of Induced myeloid leukemia cell differentiation protein Mcl-1 (Q07820 whole entry): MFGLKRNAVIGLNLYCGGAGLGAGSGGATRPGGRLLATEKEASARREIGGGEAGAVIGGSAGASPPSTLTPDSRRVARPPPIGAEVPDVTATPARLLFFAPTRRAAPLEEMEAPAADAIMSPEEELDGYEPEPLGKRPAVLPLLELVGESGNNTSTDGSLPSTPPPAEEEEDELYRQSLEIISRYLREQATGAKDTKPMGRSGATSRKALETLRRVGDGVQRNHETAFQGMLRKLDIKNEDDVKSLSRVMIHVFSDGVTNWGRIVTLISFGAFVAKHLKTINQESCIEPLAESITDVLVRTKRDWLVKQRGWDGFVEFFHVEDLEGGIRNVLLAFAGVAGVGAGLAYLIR

[12] = molecular target: T8, Zinc finger protein mex-5 (Caenorhabditis elegans, UniProt Q9XUB2); test: potency of MEX-5 RNA-binding blockers – biochemical, C. elegans, fluorescence polarization, dose response (AID 1960)
T8 sequence (Q9XUB2 whole entry): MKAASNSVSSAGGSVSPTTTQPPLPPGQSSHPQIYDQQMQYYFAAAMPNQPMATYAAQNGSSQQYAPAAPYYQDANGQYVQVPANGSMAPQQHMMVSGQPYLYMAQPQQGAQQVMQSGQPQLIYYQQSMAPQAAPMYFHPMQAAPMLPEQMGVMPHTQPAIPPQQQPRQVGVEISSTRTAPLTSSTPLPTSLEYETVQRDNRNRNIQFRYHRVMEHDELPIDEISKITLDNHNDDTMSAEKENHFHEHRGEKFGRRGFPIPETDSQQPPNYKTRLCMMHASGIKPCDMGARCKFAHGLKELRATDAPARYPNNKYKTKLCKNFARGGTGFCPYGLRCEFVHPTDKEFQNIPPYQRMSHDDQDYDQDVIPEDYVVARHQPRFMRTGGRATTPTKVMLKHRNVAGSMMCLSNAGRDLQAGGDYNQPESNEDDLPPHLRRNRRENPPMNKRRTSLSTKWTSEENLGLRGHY

[13] = molecular target: T9, RNA-binding protein pos-1 (Caenorhabditis elegans, UniProt G5EF15); test: disruptors of C. elegans POS-1 RNA interaction – biochemical, fluorescence polarization, dose response (AID 1964);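 note: purified POS-1 fused to maltose binding protein made in E. coli; potency of compounds blocking POS-1 binding to fluorescent RNA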
T9 sequence (G5EF15 whole entry): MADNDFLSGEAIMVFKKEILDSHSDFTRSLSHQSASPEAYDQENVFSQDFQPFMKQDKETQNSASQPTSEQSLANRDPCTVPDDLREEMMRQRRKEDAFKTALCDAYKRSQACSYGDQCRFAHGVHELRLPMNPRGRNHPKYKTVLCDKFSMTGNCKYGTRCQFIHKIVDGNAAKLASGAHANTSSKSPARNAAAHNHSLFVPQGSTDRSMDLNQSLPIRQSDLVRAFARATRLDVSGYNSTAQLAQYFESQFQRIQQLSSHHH

Chain of Large T antigen (P03070 whole entry, the tested form may be a part): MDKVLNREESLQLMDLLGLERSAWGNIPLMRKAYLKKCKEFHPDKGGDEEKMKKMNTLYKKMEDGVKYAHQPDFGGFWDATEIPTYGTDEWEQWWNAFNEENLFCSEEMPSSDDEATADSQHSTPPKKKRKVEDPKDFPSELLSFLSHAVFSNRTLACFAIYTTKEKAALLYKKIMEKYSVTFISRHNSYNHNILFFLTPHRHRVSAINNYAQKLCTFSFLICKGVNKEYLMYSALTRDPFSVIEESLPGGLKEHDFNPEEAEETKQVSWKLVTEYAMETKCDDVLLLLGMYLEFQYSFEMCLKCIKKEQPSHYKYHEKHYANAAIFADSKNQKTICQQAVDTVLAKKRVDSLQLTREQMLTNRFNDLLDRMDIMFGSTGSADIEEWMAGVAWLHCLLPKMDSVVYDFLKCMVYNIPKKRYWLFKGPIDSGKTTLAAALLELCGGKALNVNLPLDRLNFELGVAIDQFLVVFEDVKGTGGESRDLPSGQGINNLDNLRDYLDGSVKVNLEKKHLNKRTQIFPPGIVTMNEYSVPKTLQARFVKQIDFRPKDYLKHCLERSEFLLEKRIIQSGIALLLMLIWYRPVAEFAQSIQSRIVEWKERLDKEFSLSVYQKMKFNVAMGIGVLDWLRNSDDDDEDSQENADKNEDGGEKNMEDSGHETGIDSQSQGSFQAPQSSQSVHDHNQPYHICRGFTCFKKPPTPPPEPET

## CCOc1ccc(/C=N/OCC(=O)Nc2ccc3c(c2)OCO3)cc1
cells
  IC50: 18.1 µM (active)

## COc1cc(/C=C2\C(=N)N3N=C(S(C)(=O)=O)SC3=NC2=O)ccc1OS(=O)(=O)c1ccc(C)cc1
Large T antigen
  IC50: 64.6 µM (active)
[1]
  IC50: 3.81 µM (active)

## CC1(C)OC(c2ccccc2)=C/C(=C\C=N\NC(=O)c2ccncc2)O1
cells
  IC50: 1.06 µM (active)

## CCc1ccc(N2C(=O)C(Cl)=C(N3CCOCC3)C2=O)cc1
Genome polyprotein
  IC50: 45.1 µM (active)
Protein RecA
  EC50: 0.34 µM (active)
[2]
  AC50: 6.99 µM (active)

## CN(C)c1ccc(C=C2C(=O)NC(=S)NC2=O)cc1[N+](=O)[O-]
Genome polyprotein
  IC50: 12.8 µM (active)
Large T antigen
  IC50: 73.7 µM (active)
[3]
  IC50: > 66 µM (inactive)
Leucine aminopeptidase
  IC50: 76.6 µM (active)
[4]
  IC50: > 66 µM (inactive)

## COc1cc(C(=O)Nc2ccc3ccccc3c2)cc(OC)c1OC
[5]
  EC50: 1.33 µM (active)
BJ [6]
  EC50: 3.2 µM (active)
BJ [7]
  EC50: 1.44 µM (active)
BJ [8]
  EC50: > 150 µM (not active)

## CCC(C)[C@H](N)c1cn([C@@H](Cc2cc3ccccc3[nH]2)C(=O)N2CCNCC2)nn1 (stereo not given in full)
[9]
  AC50: 8.23 µM (active)
[10]
  IC50: > 20 µM (inactive)

## COc1ccccc1NC(=O)CSc1sc2c(O)cc(=O)[nH]c2c1C#N
[1]
  IC50: 6.42 µM (active)

## CC[C@H](C)NC(=O)c1ccc(Cn2c(=S)[nH]c3c([nH]c4ccc(OC)cc43)c2=O)cc1
[1]
  IC50: 4.67 µM (active)
[11]
  IC50: 5.25 µM (active)

## Cc1ccc(-c2[nH]nc3c2C(c2cccnc2)C(C#N)=C(N)O3)cc1 (stereo not given)
Leucine aminopeptidase
  IC50: 25.8 µM (active)
Protein RecA
  EC50: 1.3 µM (active)
[2]
  AC50: 5.17 µM (active)

## CCOc1ccccc1CNS(=O)(=O)c1ccc(-c2cnc(C3CC3)o2)cc1
[5]
  EC50: 19.7 µM (inconclusive)
BJ [6]
  EC50: 0.535 µM (inconclusive)
BJ [7]
  EC50: 0.703 µM (inconclusive)
BJ [8]
  EC50: 46.3 µM (active)

## CCC(=O)N1CCN(c2cc3c(cc2F)c(=O)c(C(=O)O)cn3CC)CC1
cells
  IC50: 6.76 µM (active)

## Nc1ccc2[nH]c(CCCO)nc2c1
Large T antigen
  IC50: 21.2 µM (active)
[9]
  AC50: 8.48 µM (active)
[12]
  EC50: 4.35 µM (inconclusive)
[13]
  EC50: 36.7 µM (active)

## COc1ccc(N2C(=O)NC(=O)/C(=C\c3ccccc3[N+](=O)[O-])C2=O)cc1
Genome polyprotein
  IC50: 32 µM (active)

## O=C(Cn1c(=O)oc2cc(S(=O)(=O)N3CCCCCC3)ccc21)NC1CCCCCCC1
[1]
  IC50: 9.64 µM (active)
